≈ marks a conversion by molar mass, not a printed value. Read-outs that look alike come from different tables or passages of the source.
Tested on: S. aureus clinical isolates
Assay: microbe, parasite or virus in culture
Type: cell-based

## Cc1[nH]c(C(=O)Nc2nc3ccc(C(=O)O)cc3s2)c(Cl)c1Cl [ULD1]
S. aureus ATCC 29213, MSSA / VSSA, test date 2018-10-25 (three repeat lines)
  MIC: 1 µg/mL (≈ 2.7 µM)
Staphylococcus aureus, ATCC 29213 / MSSA, S. aureus ATCC 29213, MSSA / VSSA, test date 2018-10-25 (three repeat lines), read-out: MIC
  MIC: 0.5 µg/mL (≈ 1.35 µM)
Staphylococcus aureus, ATCC 29213 / MSSA, S. aureus ATCC 29213, MSSA / VSSA, test date 2018-11-07, read-out: MIC
  MIC: 0.25 µg/mL (≈ 0.675 µM)
Staphylococcus aureus, MRSA / NRS 3 / VISA, S. aureus IHMA 1308243, NRS3, MRSA / VISA, read-out: MIC
  MIC: 1 µg/mL (≈ 2.7 µM)
Staphylococcus aureus, MRSA / NRS 4 / VISA, S. aureus IHMA 649380, NRS4, MRSA / VISA, read-out: MIC
  MIC: 0.5 µg/mL (≈ 1.35 µM)
Staphylococcus aureus, MRSA / NRS 18 / VISA, S. aureus IHMA 649386, NRS18, MRSA / VISA, read-out: MIC
  MIC: 0.5 µg/mL (≈ 1.35 µM)
Staphylococcus aureus, MRSA / NRS 19 / VISA, S. aureus IHMA 649387, NRS19, MRSA / VISA, read-out: MIC
  MIC: 0.5 µg/mL (≈ 1.35 µM)
Staphylococcus aureus, MRSA / NRS 21 / VISA, S. aureus IHMA 649388, NRS21, MRSA / VISA, read-out: MIC
  MIC: 1 µg/mL (≈ 2.7 µM)
Staphylococcus aureus, MRSA / NRS 22 / USA600 / VISA, S. aureus IHMA 649389, NRS22, MRSA / VISA, USA600, read-out: MIC
  MIC: 0.5 µg/mL (≈ 1.35 µM)
Staphylococcus aureus, MRSA / NRS 23 / VISA, S. aureus IHMA 649390, NRS23, MRSA / VISA, read-out: MIC
  MIC: 0.5 µg/mL (≈ 1.35 µM)
Staphylococcus aureus, MRSA / NRS 24 / VISA, S. aureus IHMA 649391, NRS24, MRSA / VISA, read-out: MIC
  MIC: 0.5 µg/mL (≈ 1.35 µM)
Staphylococcus aureus, MRSA / NRS 26, S. aureus IHMA 649392, NRS26, MRSA / VSSA, read-out: MIC
  MIC: 0.5 µg/mL (≈ 1.35 µM)
Staphylococcus aureus, MRSA / NRS 27 / VISA, S. aureus IHMA 1308248, NRS27, MRSA / VISA, read-out: MIC
  MIC: 1 µg/mL (≈ 2.7 µM)
Staphylococcus aureus, MRSA / NRS 29 / VISA, S. aureus IHMA 1308250, NRS29, MRSA / VISA, read-out: MIC
  MIC: 0.5 µg/mL (≈ 1.35 µM)
Staphylococcus aureus, MRSA / NRS 37 / VISA, S. aureus IHMA 1308251, NRS37, MRSA / VISA, read-out: MIC
  MIC: 0.5 µg/mL (≈ 1.35 µM)
Staphylococcus aureus, MRSA / NRS 54, S. aureus IHMA 1308253, NRS54, MRSA / VSSA* (*Expected VAN intermediate, confirmed VAN susceptible twice), test date 2018-11-07, read-out: MIC
  MIC: 0.25 µg/mL (≈ 0.675 µM)
Staphylococcus aureus, MRSA / NRS 56 / VISA, S. aureus IHMA 1308254, NRS56, MRSA / VISA, read-out: MIC
  MIC: 0.5 µg/mL (≈ 1.35 µM)
Staphylococcus aureus, MRSA / USA100 / VRSA, S. aureus IHMA 672230, VRS1, MRSA / VRSA, USA100, read-out: MIC
  MIC: 0.5 µg/mL (≈ 1.35 µM)
Staphylococcus aureus, MRSA / USA100 / VRSA, S. aureus IHMA 672231, VRS2, MRSA / VRSA, USA100, read-out: MIC
  MIC: 0.5 µg/mL (≈ 1.35 µM)
Staphylococcus aureus, MRSA / USA100 / VRSA, S. aureus IHMA 672234, VRS4, MRSA / VRSA, USA100, read-out: MIC
  MIC: 0.5 µg/mL (≈ 1.35 µM)
Staphylococcus aureus, MRSA / USA100 / VRSA, S. aureus IHMA 672235, VRS5, MRSA / VRSA, USA100, read-out: MIC
  MIC: 1 µg/mL (≈ 2.7 µM)
Staphylococcus aureus, MRSA / USA100 / VRSA, S. aureus IHMA 672237, VRS7, MRSA / VRSA, USA100, read-out: MIC
  MIC: 0.5 µg/mL (≈ 1.35 µM)
Staphylococcus aureus, MRSA / USA100 / VRSA, S. aureus IHMA 672238, VRS8, MRSA / VRSA, USA100, read-out: MIC
  MIC: 0.5 µg/mL (≈ 1.35 µM)
Staphylococcus aureus, MRSA / USA100 / VRSA, S. aureus IHMA 672239, VRS9, MRSA / VRSA, USA100, read-out: MIC
  MIC: 0.5 µg/mL (≈ 1.35 µM)
Staphylococcus aureus, MRSA / USA100 / VRSA, S. aureus IHMA 1308256, VRS10, MRSA / VRSA, USA100, read-out: MIC
  MIC: 1 µg/mL (≈ 2.7 µM)
Staphylococcus aureus, MRSA / USA100 / VRSA, S. aureus IHMA 1308258, VRS11b, MRSA / VRSA, USA100, read-out: MIC
  MIC: 0.5 µg/mL (≈ 1.35 µM)
Staphylococcus aureus, MRSA / USA800 / VRSA, S. aureus IHMA 672233, VRS3b, MRSA / VRSA, USA800, read-out: MIC
  MIC: 0.25 µg/mL (≈ 0.675 µM)
Staphylococcus aureus, MRSA / VISA / VRSA, all isolates of the panel (MRSA, VISA, VRSA), read-out: MIC against all tested S. aureus clinical isolates
  MIC: ≤ 1 µg/mL
Staphylococcus aureus, MRSA, S. aureus IHMA 1569509, MRSA / VSSA, read-out: MIC
  MIC: 0.25 µg/mL (≈ 0.675 µM)
Staphylococcus aureus, MRSA, S. aureus IHMA 1575268, MRSA / VSSA, read-out: MIC
  MIC: 1 µg/mL (≈ 2.7 µM)
Staphylococcus aureus, MRSA, S. aureus IHMA 1575629, MRSA / VSSA, read-out: MIC
  MIC: 0.5 µg/mL (≈ 1.35 µM)
Staphylococcus aureus, MRSA, S. aureus IHMA 1577820, MRSA / VSSA, read-out: MIC
  MIC: 1 µg/mL (≈ 2.7 µM)
Staphylococcus aureus, MRSA, S. aureus IHMA 1580300, MRSA / VSSA, read-out: MIC
  MIC: 0.5 µg/mL (≈ 1.35 µM)
Staphylococcus aureus, MRSA, S. aureus IHMA 1580940, MRSA / VSSA, read-out: MIC
  MIC: 0.5 µg/mL (≈ 1.35 µM)
Staphylococcus aureus, MRSA, S. aureus IHMA 1582100, MRSA / VSSA, read-out: MIC
  MIC: 0.5 µg/mL (≈ 1.35 µM)
Staphylococcus aureus, MRSA, S. aureus IHMA 1583795, MRSA / VSSA, read-out: MIC
  MIC: 1 µg/mL (≈ 2.7 µM)
Staphylococcus aureus, MRSA, S. aureus IHMA 1584223, MRSA / VSSA, read-out: MIC
  MIC: 1 µg/mL (≈ 2.7 µM)
Staphylococcus aureus, MRSA, S. aureus IHMA 1585316, MRSA / VSSA, read-out: MIC
  MIC: 0.25 µg/mL (≈ 0.675 µM)
Staphylococcus aureus, MRSA, S. aureus IHMA 1586780, MRSA / VSSA, read-out: MIC
  MIC: 0.5 µg/mL (≈ 1.35 µM)
Staphylococcus aureus, MRSA, S. aureus IHMA 1587322, MRSA / VSSA, read-out: MIC
  MIC: 0.5 µg/mL (≈ 1.35 µM)
Staphylococcus aureus, MRSA, S. aureus IHMA 1588127, MRSA / VSSA, read-out: MIC
  MIC: 0.5 µg/mL (≈ 1.35 µM)
Staphylococcus aureus, MRSA, S. aureus IHMA 1591462, MRSA / VSSA, read-out: MIC
  MIC: 0.25 µg/mL (≈ 0.675 µM)
Staphylococcus aureus, MRSA, S. aureus IHMA 1592755, MRSA / VSSA, read-out: MIC
  MIC: 0.5 µg/mL (≈ 1.35 µM)
Staphylococcus aureus, MRSA, S. aureus IHMA 1592776, MRSA / VSSA, read-out: MIC
  MIC: 0.5 µg/mL (≈ 1.35 µM)
Staphylococcus aureus, MRSA, S. aureus IHMA 1597106, MRSA / VSSA, read-out: MIC
  MIC: 1 µg/mL (≈ 2.7 µM)
Staphylococcus aureus, MRSA, S. aureus IHMA 1602095, MRSA / VSSA, read-out: MIC
  MIC: 0.5 µg/mL (≈ 1.35 µM)
Staphylococcus aureus, MRSA, S. aureus IHMA 1611170, MRSA / VSSA, read-out: MIC
  MIC: 0.5 µg/mL (≈ 1.35 µM)
Staphylococcus aureus, MRSA, S. aureus IHMA 1611612, MRSA / VSSA, read-out: MIC
  MIC: 0.5 µg/mL (≈ 1.35 µM)
Staphylococcus aureus, MRSA, S. aureus IHMA 1612228, MRSA / VSSA, read-out: MIC
  MIC: 0.5 µg/mL (≈ 1.35 µM)
Staphylococcus aureus, MRSA, S. aureus IHMA 1620441, MRSA / VSSA, read-out: MIC
  MIC: 0.5 µg/mL (≈ 1.35 µM)
Staphylococcus aureus, MRSA, S. aureus IHMA 1621638, MRSA / VSSA, read-out: MIC
  MIC: 1 µg/mL (≈ 2.7 µM)

— publication PMC7561186, “Rational design of balanced dual-targeting antibiotics with limited resistance” (PLoS Biology, 2020)
